Measured values published in patent publication US9414597B2, “Pesticidal mixtures including spiroheterocyclic pyrrolidine diones” (Syngenta Participations AG, priority 2011, dated 2016).

Legend:
[1] = tested on: Myzus persicae (Green Peach Aphid); experiment: Myzus persicae feeding/residual contact activity, preventive (sunflower leaf discs); format: in vivo
From the text: (§1) The action to be expected E for a given active ingredient combination obeys the so-called COLBY formula and can be calculated as follows (COLBY, S. R. “Calculating synergistic and antagonistic responses of herbicide combination”. Weeds, Vol. 15, pages 20-22; 1967): • ppm=milligrams of active ingredient(=a.i.) per liter of spray mixture • X=% action by active ingredient A) using p ppm of active ingredient • Y=% action by active ingredient B) using q ppm of active ingredient.
(§2) According to COLBY, the expected (additive) action of active ingredients A)+B) using p+q ppm of active ingredient is
(§3) If the action actually observed (O) is greater than the expected action (E), then the action of the combination is super-additive, i.e. there is a synergistic effect. In mathematical terms the synergism factor SF corresponds to O/E. In the agricultural practice an SF of ≧1.2 indicates significant improvement over the purely complementary addition of activities (expected activity), while an SF of ≦0.9 in the practical application routine signals a loss of activity compared to the expected activity.
Myzus persicae (Green Peach Aphid):
feeding/residual contact activity, preventive
Sunflower leaf discs are placed on agar in a 24-well microtiter plate and sprayed with the DMSO test solutions. After drying, the leaf discs are infested with an aphid population of mixed ages. […] (1 PPM=1 mg l^−1)

[2] = tested on: Tetranychus urticae (Two-Spotted Spider Mite); experiment: Tetranychus urticae feeding/contact activity, preventive (bean leaf discs); format: in vivo
From the text: as §1, §2, §3
Tetranychus urticae (Two-Spotted Spider Mite):
feeding/contact activity, preventive
Bean leaf discs on agar in 24-well microtiter plates are sprayed with the DMSO test solutions. After drying, the leaf discs are infested with mite populations of mixed ages. […] (1 PPM=1 mg l^−1)

[3] = single active, 100 PPM AI, after 5 days
[4] = single active, 200 PPM AI, after 5 days
[5] = single active, 400 PPM AI, after 5 days
[6] = single active, 800 PPM AI, after 5 days

In the case of CC1=NNC(=O)N(/N=C/c2cccnc2)C1 [Pymetrozine, pymetrozine], the “AVERAGE DEAD IN % AFTER 5 DAYS” value ([1]; Pymetrozine alone, 0.4 PPM AI) was 0%, the “AVERAGE DEAD IN % AFTER 5 DAYS” value ([1]; Pymetrozine alone, 0.8 PPM AI) was 25% and the “AVERAGE DEAD IN % AFTER 5 DAYS” value ([1]; Table 48, Pymetrozine alone, 0.8 PPM AI) was 25%. The “AVERAGE DEAD IN % AFTER 5 DAYS” value ([2]; Pymetrozine alone, 100 PPM AI) was 0%, the “AVERAGE DEAD IN % AFTER 5 DAYS” value ([2]; Pymetrozine alone, 200 PPM AI) was 0% and the “AVERAGE DEAD IN % AFTER 5 DAYS” value [2, 3] was 0%. The “AVERAGE DEAD IN % AFTER 5 DAYS” value [2, 4] was 0%, the “AVERAGE DEAD IN % AFTER 5 DAYS” value [2, 5] was 0% and the “AVERAGE DEAD IN % AFTER 5 DAYS” value [2, 6] was 50%.

CC(c1ccc(C(F)(F)F)nc1)S(C)(=O)=NC#N (stereo not shown) [Sulfoxaflor, sulfoxaflor] was tested, and the “AVERAGE DEAD IN % AFTER 5 DAYS” value ([1]; Sulfoxaflor alone, 0.2 PPM AI) was 20%, the “AVERAGE DEAD IN % AFTER 5 DAYS” value ([2]; Sulfoxaflor alone, PPM AI r6:50 r7:100 r8:200 r9:400) was 0% and the “AVERAGE DEAD IN % AFTER 5 DAYS” value [2, 3] was 0%. For the same molecule, the “AVERAGE DEAD IN % AFTER 5 DAYS” value [2, 4] was 0%, the “AVERAGE DEAD IN % AFTER 5 DAYS” value [2, 5] was 0% and the “AVERAGE DEAD IN % AFTER 5 DAYS” value [2, 6] was 35%.

CCOC(=O)OC1=C(c2c(C)cc(C)cc2C)C(=O)N(C)C12CCN(OC)CC2 [Compound T1.058] was tested, and the “AVERAGE DEAD IN % AFTER 5 DAYS” value ([2]; T1.058 alone, 50 PPM AI) was 0%, the “AVERAGE DEAD IN % AFTER 5 DAYS” value ([2]; T1.058 alone, 100 PPM AI) was 55% and the “AVERAGE DEAD IN % AFTER 5 DAYS” value ([2]; T1.058 alone, PPM AI r7:50 r8:25 r9:12.5 r10:6.25 r11:3.125 r12-r15:50) was 0%.

With CCOC(=O)OC1=C(c2c(C)cc(Cl)cc2C)C(=O)N(C)C12CCN(OC)CC2 [Compound T1.055] the “AVERAGE DEAD IN % AFTER 5 DAYS” value ([1]; T1.055 alone, 50 PPM AI) was 10%, the “AVERAGE DEAD IN % AFTER 5 DAYS” value ([1]; T1.055 alone, PPM AI r6:100 r7:50 r8:25 r9:12.5) was 0% and the “AVERAGE DEAD IN % AFTER 5 DAYS” value ([1]; T1.055 alone, PPM AI r6:100 r7:50 r8:25 r9:12.5 r10:6.25) was 0%. The “AVERAGE DEAD IN % AFTER 5 DAYS” value ([1]; Table 45, T1.055 alone, 50 PPM AI) was 0%, the “AVERAGE DEAD IN % AFTER 5 DAYS” value ([1]; Table 45, T1.055 alone, 100 PPM AI) was 25% and the “AVERAGE DEAD IN % AFTER 5 DAYS” value ([1]; Table 45, T1.055 alone, 200 PPM AI) was 65%. For the same molecule, the “AVERAGE DEAD IN % AFTER 5 DAYS” value ([1]; Table 46, T1.055 alone, 50 PPM AI) was 25%, the “AVERAGE DEAD IN % AFTER 5 DAYS” value ([1]; Table 48, T1.055 alone, 12.5 PPM AI) was 0% and the “AVERAGE DEAD IN % AFTER 5 DAYS” value ([1]; Table 48, T1.055 alone, 25 PPM AI) was 0%. For the same molecule, the “AVERAGE DEAD IN % AFTER 5 DAYS” value ([1]; Table 48, T1.055 alone, 50 PPM AI) was 65%, the “AVERAGE DEAD IN % AFTER 5 DAYS” value ([1]; Table 48, T1.055 alone, 100 PPM AI) was 65% and the “AVERAGE DEAD IN % AFTER 5 DAYS” value ([1]; Table 48, T1.055 alone, 200 PPM AI) was 80%. For the same molecule, the “AVERAGE DEAD IN % AFTER 5 DAYS” value ([2]; T1.055 alone, 100 PPM AI) was 0%, the “AVERAGE DEAD IN % AFTER 5 DAYS” value ([2]; T1.055 alone, 200 PPM AI) was 0% and the “AVERAGE DEAD IN % AFTER 5 DAYS” value ([2]; T1.055 alone, PPM AI r6:200 r7:100 r8:50) was 0%.

For CNC(=O)c1cc(C#N)cc(C)c1NC(=O)c1cc(Br)nn1-c1ncccc1Cl [Cyantraniliprole, cyantraniliprole], the “AVERAGE DEAD IN % AFTER 5 DAYS” value ([1]; Cyantraniliprole alone, 1.5 PPM AI) was 0%.

In the case of CNC(=O)c1cc(Cl)cc(C)c1NC(=O)c1cc(Br)nn1-c1ncccc1Cl [Chlorantraniliprole, chlorantraniliprole], the “AVERAGE DEAD IN % AFTER 5 DAYS” value ([1]; Chlorantraniliprole alone, 50 PPM AI) was 0%, the “AVERAGE DEAD IN % AFTER 5 DAYS” value ([1]; Table 45, Chlorantraniliprole alone, 50 PPM AI) was 0% and the “AVERAGE DEAD IN % AFTER 5 DAYS” value ([2]; Chlorantraniliprole alone, 200 PPM AI) was 25%. For the same molecule, the “AVERAGE DEAD IN % AFTER 5 DAYS” value ([2]; Chlorantraniliprole alone, PPM AI r6:25 r7:50 r8:100) was 0%.

CC1(C)[C@H](C(=O)O[C@H](C#N)c2cccc(Oc3ccccc3)c2)[C@@H]1/C=C(\Cl)C(F)(F)F (racemic) [Lambda cyhalothrin, lambda-cyhalothrin] was tested, and the “AVERAGE DEAD IN % AFTER 5 DAYS” value ([1]; Lambda Cyhalothrin alone, PPM AI r7-r10:50 r11-r14:25) was 57% and the “AVERAGE DEAD IN % AFTER 5 DAYS” value ([2]; single active, 3.125 PPM AI, after 5 days) was 15%.
